Results from ChEMBL document CHEMBL6177943, “Recent advances in small molecule design strategies against hepatic fibrosis” (Eur J Med Chem, 2025).

Assays:
[1] = biological target: Collagen alpha-1(I) chain (Homo sapiens) (UniProt P02452); test: Inhibition of COL1A1 (unknown origin) transfected in human LX-2 cells at 40 uM incubated for 24 hrs by Bright-Glo luciferase assay relative to control; type: cell-based
[2] = Cmax in Sprague-Dawley rat at 25 mg/kg, po measured after 8 hrs; type: ADME, organism-based; conditions: in vivo
[3] = Anti-hepatic activity in rat HSC-T6 cells assessed as inhibition of LPS-induced cell proliferation at 10 uM incubated for 24 hrs by MTS assay relative to control; type: functional
LX-2 = test: Anti-fibrotic activity in human LX-2 cells assessed as inhibition of alpha-SMA mRNA expression; type: functional; set-up: scale not given: the % may be the effect or the level left

Collagen alpha-1(I) chain (Homo sapiens), sequence (P02452 whole entry): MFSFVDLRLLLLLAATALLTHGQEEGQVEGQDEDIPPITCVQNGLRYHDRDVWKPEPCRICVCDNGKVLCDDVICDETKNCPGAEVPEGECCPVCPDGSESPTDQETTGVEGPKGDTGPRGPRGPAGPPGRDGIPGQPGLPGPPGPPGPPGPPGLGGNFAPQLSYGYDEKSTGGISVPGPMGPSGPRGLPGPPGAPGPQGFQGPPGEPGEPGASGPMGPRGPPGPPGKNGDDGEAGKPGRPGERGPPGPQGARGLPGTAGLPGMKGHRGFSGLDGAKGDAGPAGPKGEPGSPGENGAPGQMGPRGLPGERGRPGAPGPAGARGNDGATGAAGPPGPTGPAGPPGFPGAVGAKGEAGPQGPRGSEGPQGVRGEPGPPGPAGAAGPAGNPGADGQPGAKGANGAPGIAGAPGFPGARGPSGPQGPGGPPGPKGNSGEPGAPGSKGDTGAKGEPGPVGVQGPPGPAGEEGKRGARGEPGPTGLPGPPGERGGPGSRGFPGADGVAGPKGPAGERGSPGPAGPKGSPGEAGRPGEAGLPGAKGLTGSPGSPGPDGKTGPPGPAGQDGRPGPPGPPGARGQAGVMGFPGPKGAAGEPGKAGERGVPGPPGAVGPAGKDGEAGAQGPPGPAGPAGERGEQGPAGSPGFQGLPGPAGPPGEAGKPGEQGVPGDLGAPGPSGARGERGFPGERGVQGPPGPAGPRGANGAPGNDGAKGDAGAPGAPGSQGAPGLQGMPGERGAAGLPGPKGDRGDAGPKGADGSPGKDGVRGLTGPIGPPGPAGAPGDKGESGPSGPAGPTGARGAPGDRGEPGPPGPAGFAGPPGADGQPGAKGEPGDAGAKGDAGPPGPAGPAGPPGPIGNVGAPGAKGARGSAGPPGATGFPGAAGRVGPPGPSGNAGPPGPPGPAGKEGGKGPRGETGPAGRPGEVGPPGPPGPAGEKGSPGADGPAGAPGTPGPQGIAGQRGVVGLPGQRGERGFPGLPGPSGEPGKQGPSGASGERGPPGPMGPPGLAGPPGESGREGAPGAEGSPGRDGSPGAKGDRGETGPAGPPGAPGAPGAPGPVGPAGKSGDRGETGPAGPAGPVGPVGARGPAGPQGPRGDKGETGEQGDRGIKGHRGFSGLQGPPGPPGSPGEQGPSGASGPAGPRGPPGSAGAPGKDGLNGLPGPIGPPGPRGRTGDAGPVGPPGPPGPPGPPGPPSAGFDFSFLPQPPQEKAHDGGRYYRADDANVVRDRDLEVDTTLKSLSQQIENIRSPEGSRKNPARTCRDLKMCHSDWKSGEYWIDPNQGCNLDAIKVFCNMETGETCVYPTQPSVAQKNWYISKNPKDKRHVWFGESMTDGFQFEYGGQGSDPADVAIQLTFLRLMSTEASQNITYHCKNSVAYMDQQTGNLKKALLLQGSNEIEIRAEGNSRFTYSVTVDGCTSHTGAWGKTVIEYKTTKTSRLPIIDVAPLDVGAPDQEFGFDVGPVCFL

`O=c1cccc2n1C[C@@H]1CNC[C@H]2C1` gave an inhibition [1] of 90%.
For `O=c1cccc2n1CC1CC2CN(Cc2cc(Cl)ccc2Cl)C1` (stereo not given), the Cmax [2] was 960 nM.
`COC(=O)c1cc2cc(OC)c(OC)cc2c2cc(C)ccc12` showed an inhibition at 10 µM [3] of 34.2%.
Compound `C1=C2CCCN[C@H]2[C@@H]2C[C@H]1[C@H]1CCCCN1C2` has an inhibition [1] of 4.7%.
`CCCCCCCCN(C)C(=O)c1cc(O)c(O)c(O)c1` gave an Activity (LX-2) of 47.7%.
